# Reference: patent US11773078B2, “Furin inhibitors” (Glaxosmithkline Intellectual Property Development Limited, priority 2018, dated 2023)
# Structures can show the parent of a compound that is named as a salt.
# What was measured:
# [1] = biological target: T1, Furin (108-574-Tev-Flag-His) enzyme (Homo sapiens, UniProt P09958); assay: Furin enzyme assay; type: biochemical; conditions: for IC50: read-out: furin enzyme pIC50 (converted)
# T1 construct: Furin (108-574-Tev-Flag-His) enzyme was expressed and purified from CHO cells; TEV cleavage site (C); FLAG (C); His (C); made in house; host or cells: CHO cells
# Procedure: Reactions were performed in black 384-well polystyrene low volume plates (Greiner). Furin (108-574-Tev-Flag-His) enzyme was expressed and purified from CHO cells. Compounds of the invention were dissolved in DMSO (1.0 mM) and serially diluted 1 to 3 with DMSO through eleven dilutions to provide a final compound concentration range from 0.00017 to 10 μM. 0.05 μL of each concentration was transferred to the corresponding well of an assay plate, and then 5 μL of 40 pM furin enzyme in assay buffer (100 mM HEPES pH7.5, 1 mM CaCl2 and 0.005% Triton X-100) was added using a Multidrop Combi (Thermo) to the compound plates, and mixed by inversion. […] The plates were centrifuged at 500×g for 1 minute and incubated at room temperature for two hours. Enzyme inhibition is then quantified using an Envision instrument (PerkinElmer).
# Data were analyzed using AbaseXE 7.3, utilizing a four-parameter curve fit equation. The following values were used to define limits and/or constraints for each of the four parameters: • Minimum—limit −10 to 10 • Maximum—90 to 110 • Slope—limit 0.5 to 2.0 • pXC50 confidence interval—10
# Raw counts obtained from the respective plate reader (Perkin Elmer) were captured for data analysis. Curves were generated using the equation: Y=A+[(B−A)/(1+(10^C/x)^D)] • where: A=minimum response • B=maximum response • C=log 10*XC50 • D=slope factor • x=log 10 compound concentration [M]
# The results were recorded as pXC50 values (−C in the above equation)
# [2] = biological target: T2, furin (endogenous protease) in U20S cells (Homo sapiens, UniProt P09958); assay: Furin cell-based assay (image-based, Golgi-targeted GFP with BMP10 furin/PCSK cleavage site); conditions: 24-hour incubation, read-out: furin golgi cell pXC50 (converted);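 note: Read-out is mean GFP fluorescence of Golgi puncta per cell by high-content imaging, retained when furin inhibited, over an eleven-point 0.00017–10 µM series, four-parameter fit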
# T2 construct: the endogenous protease cleaves GFP; endogenous in cells; host or cells: U2OS cells transduced with a BacMam reporter
# T2 sequence (P09958 108-794): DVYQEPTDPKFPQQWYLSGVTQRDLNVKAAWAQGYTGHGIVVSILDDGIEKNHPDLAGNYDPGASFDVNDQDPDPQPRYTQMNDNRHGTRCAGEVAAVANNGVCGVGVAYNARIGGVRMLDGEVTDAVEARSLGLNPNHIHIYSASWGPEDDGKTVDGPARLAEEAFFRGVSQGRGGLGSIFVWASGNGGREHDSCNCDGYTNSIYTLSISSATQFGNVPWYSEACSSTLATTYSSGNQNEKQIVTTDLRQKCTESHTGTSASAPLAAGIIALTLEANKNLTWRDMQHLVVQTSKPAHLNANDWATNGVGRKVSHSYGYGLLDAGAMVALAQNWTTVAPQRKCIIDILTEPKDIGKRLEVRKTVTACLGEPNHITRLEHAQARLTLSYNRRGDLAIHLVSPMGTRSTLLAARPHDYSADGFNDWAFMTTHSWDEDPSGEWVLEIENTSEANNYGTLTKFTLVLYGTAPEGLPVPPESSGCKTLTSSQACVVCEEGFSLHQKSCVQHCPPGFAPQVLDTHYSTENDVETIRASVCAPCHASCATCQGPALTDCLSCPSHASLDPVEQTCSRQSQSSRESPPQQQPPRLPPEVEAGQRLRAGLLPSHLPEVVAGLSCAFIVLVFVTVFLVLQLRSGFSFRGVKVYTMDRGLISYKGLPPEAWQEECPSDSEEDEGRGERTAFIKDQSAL
# T1 sequence (P09958 108-574): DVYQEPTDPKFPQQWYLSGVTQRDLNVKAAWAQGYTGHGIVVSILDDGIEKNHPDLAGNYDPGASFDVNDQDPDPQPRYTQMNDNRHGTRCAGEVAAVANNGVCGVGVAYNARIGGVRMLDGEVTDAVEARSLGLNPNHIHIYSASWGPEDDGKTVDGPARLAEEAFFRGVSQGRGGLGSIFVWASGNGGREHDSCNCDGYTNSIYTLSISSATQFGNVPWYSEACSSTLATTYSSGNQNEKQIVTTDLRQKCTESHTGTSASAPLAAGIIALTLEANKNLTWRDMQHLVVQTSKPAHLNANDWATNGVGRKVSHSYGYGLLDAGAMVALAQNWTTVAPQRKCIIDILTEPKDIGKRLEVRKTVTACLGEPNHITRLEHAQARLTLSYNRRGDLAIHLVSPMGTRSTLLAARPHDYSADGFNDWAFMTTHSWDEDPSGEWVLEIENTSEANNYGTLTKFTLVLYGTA
SMILES,furin enzyme pIC50 [1],EC50 [2] [nM],IC50 [1] [nM]
"CNC(=O)NCC1CCN(Cc2cc(Oc3ccc(N4CCN(CCO)CC4)nc3)nc(-c3cc(Cl)cc(Cl)c3)c2)CC1 [Example 40, 1-((1-((2-(3,5-Dichlorophenyl)-6-((6-(4-(2-hydroxyethyl)piperazin-1-yl)pyridin-3-yl)oxy)pyridin-4-yl)methyl)piperidin-4-yl)methyl)-3-methylurea]",7.6,10,
"CN1CCCN(c2ncc(Oc3cc(CN4CCC(OCC(=O)O)CC4)cc(-c4cc(Cl)cc(Cl)c4)n3)cn2)CC1 [Example 140, 2-((1-((2-(3,5-dichlorophenyl)-6-((2-(4-methyl-1,4-diazepan-1-yl)pyrimidin-5-yl)oxy)pyridin-4-yl)methyl)piperidin-4-yl)oxy)acetic acid]",8.8,7.94,
"CC(=O)NCC1CCN(Cc2cc(Oc3ccc(N4CCN(CCC(N)=O)CC4)nc3)nc(-c3cc(Cl)cc(Cl)c3)c2)CC1 [Example 13, hydrochloride]",9.1,7.94,
"CC(=O)NCC1CCN(Cc2cc(Oc3cnc(N4CCNCC4)nc3)nc(-c3cc(Cl)cc(Cl)c3)c2)CC1 [Example 92, N-((1-((2-(3,5-Dichlorophenyl)-6-((2-(piperazin-1-yl)pyrimidin-5-yl)oxy)pyridin-4-yl)methyl)piperidin-4-yl)methyl)acetamide]",8.9,3.16,
"CC(CO)N1CCN(c2ncc(Oc3cc(CN4CCC(CC(=O)O)CC4)cc(-c4cc(Cl)cc(Cl)c4)n3)cn2)CC1 (centres unmarked) [Example 21, 2-(1-((2-(3,5-dichlorophenyl)-6-((2-(4-(1-hydroxypropan-2-yl)piperazin-1-yl)pyrimidin-5-yl)oxy)pyridin-4-yl)methyl)piperidin-4-yl)acetic acid]",9.9,6.31,
"NC(=O)CC1CCN(Cc2cc(Oc3cnc(N4CCNCC4)nc3)nc(-c3cc(Cl)cc(Cl)c3)c2)CC1 [Example 86, 2-(1-((2-(3,5-Dichlorophenyl)-6-((2-(piperazin-1-yl)pyrimidin-5-yl)oxy)pyridine-4-yl)methyl)piperidin-4-yl)acetamide, 4 hydrochloride]",8.9,10,
"CC(=O)NCC1CCN(Cc2cc(Oc3cnc(N4CC5CCC(C4)N5CCC(=O)O)nc3)nc(-c3cc(Cl)cc(Cl)c3)c2)CC1 [Example 296, 3-(3-(5-((4-((4-(acetamidomethyl)piperidin-1-yl)methyl)-6-(3,5-dichlorophenyl)pyridin-2-yl)oxy)pyrimidin-2-yl)-3,8-diazabicyclo[3.2.1]octan-8-yl)propanoic acid]",10.6,10,
"CC(=O)N[C@H]1[C@@H]2CCN(Cc3cc(Oc4cnc(N5CCN(CCC(C)C(=O)O)CC5)nc4)nc(-c4cc(Cl)cc(Cl)c4)c3)CC[C@@H]21 (stereo partly drawn) [Example 82, 4-(4-(5-((4-(((1R,7S,8r)-8-acetamido-4-azabicyclo[5.1.0]octan-4-yl)methyl)-6-(3,5-dichlorophenyl)pyridin-2-yl)oxy)pyrimidin-2-yl)piperazin-1-yl)-2-methylbutanoic acid]",9.3,5.01,
"CC(=O)NCC1CCN(Cc2cc(Oc3ccc(N4CCN(CC(O)CCO)CC4)nc3)nc(-c3cc(Cl)cc(Cl)c3)c2)CC1 (centres unmarked) [Example 29, N-((1-((2-(3,5-Dichlorophenyl)-6-((6-(4-(2,4-dihydroxybutyl)piperazin-1-yl)pyridin-3-yl)oxy)pyridin-4-yl)methyl)piperidin-4-yl)methyl)acetamide]",9,< 0.794,
"CC(=O)NCC1CCN(Cc2cc(Oc3ccc(N4CCN(CC5(O)CC5)CC4)nc3)nc(-c3cc(Cl)cc(Cl)c3)c2)CC1 [Example 35, N-((1-((2-(3,5-Dichlorophenyl)-6-((6-(4-((1-hydroxycyclopropyl)methyl)piperazin-1-yl)pyridin-3-yl)oxy)pyridin-4-yl)methyl)piperidin-4-yl)methyl)acetamide]",8.8,3.16,
"CC1(C)CN(c2ncc(Oc3cc(CN4CCC(CC(=O)O)CC4)cc(-c4cc(Cl)cc(Cl)c4)n3)cn2)CCN1 [Example 160, 2-(1-((2-(3,5-dichlorophenyl)-6-((2-(3,3-dimethylpiperazin-1-yl)pyrimidin-5-yl)oxy)pyridin-4-yl)methyl)piperidin-4-yl)acetic acid]",8.8,25.1,

# Results, then the molecule that gave them:
furin enzyme pIC50 [1],EC50 [2] [nM],IC50 [1] [nM],SMILES
9.1,2.51,,"CC(=O)NCC1CCN(Cc2cc(Oc3cnc(N4CCN(CCC(C)S(C)(=O)=O)CC4)nc3)nc(-c3cc(Cl)cc(Cl)c3)c2)CC1 (centres unmarked) [Example 214, N-((1-((2-(3,5-dichlorophenyl)-6-((2-(4-(3-(methylsulfonyl)butyl)piperazin-1-yl)pyrimidin-5-yl)oxy)pyridin-4-yl)methyl)piperidin-4-yl)methyl)acetamide]"
9.6,63.1,,"Cc1nc(N2CCN(C)CC2)ncc1Oc1nc(-c2cc(Cl)cc(Cl)c2)cc(CN2CCC(CC(=O)O)CC2)c1F [Example 380, 2-(1-((6-(3,5-dichlorophenyl)-3-fluoro-2-((4-methyl-2-(4-methylpiperazin-1-yl)pyrimidin-5-yl)oxy)pyridin-4-yl)methyl)piperidin-4-yl)acetic acid]"
8.7,25.1,,"CS(=O)(=O)CCCN1CCN(c2ccc(Oc3cc(CN4CCC(CC(=O)O)CC4)cc(-c4cc(Cl)cc(Cl)c4)n3)cn2)CC1 [Example 243, 2-(1-((2-(3,5-dichlorophenyl)-6-((6-(4-(3-(methylsulfonyl)propyl)piperazin-1-yl)pyridin-3-yl)oxy)pyridin-4-yl)methyl)piperidin-4-yl)acetic acid]"
9.1,3.16,,"CC(=O)NCC1CCN(Cc2cc(Oc3ccc(N4CC5CNCC5C4)nc3)nc(-c3cc(Cl)cc(Cl)c3)c2)CC1 (centres unmarked) [Example 194, N-((1-((2-(3,5-dichlorophenyl)-6-((6-(hexahydropyrrolo[3,4-c]pyrrol-2(1H)-yl)pyridin-3-yl)oxy)pyridin-4-yl)methyl)piperidin-4-yl)methyl)acetamide]"
,79.4,1.26,"O=C(O)CC1CCN(Cc2cc(Oc3ccc(N4C[C@@H]5C[C@H]4CN5)nc3)nc(-c3cc(Cl)cc(Cl)c3)c2)CC1 [Example 187, 2-(1-((2-((6-((1S,4S)-2,5-diazabicyclo[2.2.1]heptan-2-yl)pyridin-3-yl)oxy)-6-(3,5-dichlorophenyl)pyridin-4-yl)methyl)piperidin-4-yl)acetic acid]"
9.1,39.8,,"CC(=O)NCC1CCN(Cc2cc(Oc3ccc(N4CCN(CCC(=O)O)[C@@H](C)C4)nc3)nc(-c3cc(Cl)cc(Cl)c3)c2)CC1 [Example 186, (S)-3-(4-(5-((4-((4-(acetamidomethyl)piperidin-1-yl)methyl)-6-(3,5-dichlorophenyl)pyridin-2-yl)oxy)pyridin-2-yl)-2-methylpiperazin-1-yl)propanoic acid]"
,25.1,0.0316,"CNC(=O)OCC1CCN(Cc2cc(Oc3cnc(N4CCN(CCC(=O)O)CC4)nc3)nc(-c3cc(Cl)cc(Cl)c3)c2)CC1 [Example 248, 3-(4-(5-((6-(3,5-dichlorophenyl)-4-((4-(((methylcarbamoyl)oxy)methyl)piperidin-1-yl)methyl)pyridin-2-yl)oxy)pyrimidin-2-yl)piperazin-1-yl)propanoic acid]"
8.7,31.6,,"CC(CCN1CCN(c2ncc(Oc3cc(CN4CCC(CC(=O)O)CC4)cc(-c4cc(Cl)cc(Cl)c4)n3)cn2)CC1)[S+](C)[O-] (centres unmarked) [Example 204, 2-(1-((2-(3,5-Dichlorophenyl)-6-((2-(4-(3-(methylsulfinyl)butyl)piperazin-1-yl)pyrimidin-5-yl)oxy)pyridin-4-yl)methyl)piperidin-4-yl)acetic acid]"
9,6.31,,"CNC(=O)NCC1CCN(Cc2cc(Oc3cnc(N4CCN(CCCS(C)(=O)=O)CC4)nc3)nc(-c3cc(F)cc(Cl)c3)c2)CC1 [Example 274, 1-((1-((2-(3-chloro-5-fluorophenyl)-6-((2-(4-(3-(methylsulfonyl)propyl)piperazin-1-yl)pyrimidin-5-yl)oxy)pyridin-4-yl)methyl)piperidin-4-yl)methyl)-3-methylurea]"
8.4,50.1,,"O=C(O)CC1CCN(Cc2cc(Oc3cnc(N4CCN5CCC4C5)cn3)nc(-c3cc(Cl)cc(Cl)c3)c2)CC1 (centres unmarked) [Example 348, 2-(1-((2-((5-(1,4-diazabicyclo[3.2.1]octan-4-yl)pyrazin-2-yl)oxy)-6-(3,5-dichlorophenyl)pyridin-4-yl)methyl)piperidin-4-yl)acetic acid]"
,25.1,3.98,"O=C(O)CC1CCN(Cc2cc(Oc3cnc(N4CCNC5(CC5)C4)nc3)nc(-c3cc(Cl)cc(Cl)c3)c2)CC1 [Example 164, 2-(1-((2-((2-(4,7-diazaspiro[2.5]octan-7-yl)pyrimidin-5-yl)oxy)-6-(3,5-dichlorophenyl)pyridin-4-yl)methyl)piperidin-4-yl)acetic acid]"
